Consider nine compounds from patent publication US12384792B2, “Solid forms of isoquinolinones, and process of making, composition comprising, and methods of using the same” (Twelve Therapeutics, Inc., priority 2015, dated 2025).

What all share (format): physicochemical
Data set [1] is described as follows: Gravimetric vapour sorption (GVS). As to conditions: for GVS total weight change 0-90% RH: 25° C. The method, then: Gravimetric Vapour Sorption (GVS)
Sorption isotherms were obtained using a SMS DVS Intrinsic moisture sorption analyser, controlled by DVS Intrinsic Control software v1.0.1.2 (or v 1.0.1.3). The sample temperature was maintained at 25° C. by the instrument controls. The humidity was controlled by mixing streams of dry and wet nitrogen, with a total flow rate of 200 ml/min The relative humidity was measured by a calibrated Rotronic probe (dynamic range of 1.0-100% RH), located near the sample. The weight change, (mass relaxation) of the sample as a function of % RH was constantly monitored by the microbalance (accuracy ±0.005 mg). Typically 5-20 mg of sample was placed in a tared mesh stainless steel basket under ambient conditions. The sample was loaded and unloaded at 40% RH and 25° C. (typical room conditions). A moisture sorption isotherm was performed as outlined below (2 scans giving 1 complete cycle). The standard isotherm was performed at 25° C. at 10% RH intervals over a 0-90% RH range. Data analysis was carried out using Microsoft Excel using DVS Analysis Suite v6.2 (or 6.1 or 6.0).

Data set [2] can be described thus: Static stability on storage at controlled temperature/RH (XRPD, purity). From the text: (§1) See tables below for the summarized results.
Data set [3] is described as follows: Solubility screen: solubility assessment of amorphous Compound 1 in solvents. The conditions noted are these: thermodynamic from solid, room temperature. The method, then:
Amorphous Compound 1 (30 mg) was weighed out and 100 μl (˜3 vols) solvent was added at room temperature. Many samples initially dissolved but precipitated back out again after stirring for a few minutes. It was assumed that these samples had crystallized, so additional portions of solvent were added to determine the solubility of the crystalline material. See Table 1 for solubility assessment of amorphous Compound 1. […]

The nature of data set [4]: Static storage stability of solid forms (40° C./75% RH, 25° C./96% RH), form checked by XRPD. As to conditions: for Static Stability 40° C./75% RH: dried screening sample, solid form after 7 and 36 days at 40° C./75% RH.
The nature of data set [5]: Gravimetric vapour sorption (GVS) isotherm, hygroscopicity. The conditions noted are these: for weight increase (GVS): increase in relative humidity from about 0 to about 90% relative humidity.
A short description of data set [6]: Competitive slurry/water activity experiments with Forms 1 and 6. From the text:
IPA/water and ACN/water were selected as suitable solvents for the competitive slurry/water activity experiments. These solvent mixtures were selected to have some solubility of the Compound 1 free base and to be able to obtain a wide range of water activities by varying the water content. IPA/water was selected as this solvent often formed solvated forms of the free base and ACN/water was selected as this solvent produced only Form 1 of the free base during the polymorph screening experiments.
There was one exception to this—the IPA/water sample at 50° C. and at a water activity of 0.8 gave Form 1 rather than Form 4.

Data set [7] can be described thus: Kinetic solubility after 30 min in water and in 0.1M HCl. As to conditions: for solubility kinetic at 30 min: thermodynamic from solid, cocrystal, in duplicate, read-out: 30 min Kinetic solubility (pH).
From the text: as §1

The mark [8] stands for this setting: after 63 days, no change in form but loss of crystallinity.
Setting [9] is: 7 d storage at 40° C./75% RH and at 25° C./97% RH, result stated for both conditions.

≈ marks a conversion by molar mass, not a printed value. Where two headings read alike, the source gives them in different places. Bounds are passed on as bounds.

Turning to `C[C@H](NC(=O)c1c(N)nn2cccnc12)c1cc2cccc(C#Cc3cnn(C)c3)c2c(=O)n1-c1ccccc1` [Form 1 reference], in data set [1] (0-90% RH), the “Hygroscopicity by GVS” value is “non-” and the “GVS total weight change 0-90% RH” value is approximately 0.5 wt %. For the same compound, in data set [2] (after 7 days), the “Static stability at 25° C./96% RH, XRPD” value is “no change after 7 days,” and the “Static stability at 40° C./75% RH, XRPD” value is reported as “no change after 7 days,”. Also, in data set [2] (setting [8]), the “Static stability at 25° C./96% RH, form by XRPD” value is reported as “after 63 days no change” and the “Static stability at 40° C./75% RH, form by XRPD” value is “after 63 days no change”.

Take `C[C@H](NC(=O)c1c(N)nn2cccnc12)c1cc2cccc(C#Cc3cnn(C)c3)c2c(=O)n1-c1ccccc1` [amorphous Compound 1, (S)-2-amino-N-(1-(8-((1-methyl-1H-pyrazol-4-yl)ethynyl)-1-oxo-2-phenyl-1,2-dihydroisoquinolin-3-yl)ethyl)pyrazolo[1,5-a]pyrimidine-3-carboxamide]: the solubility (usually how much of the substance goes into solution per volume) in data set [3] (organic solvent or mixture, in 1,2-Dimethoxyethane) was less than 17 mg/mL; in data set [3] (organic solvent or mixture, in 1,4-Dioxane), less than 17 mg/mL; in data set [3] (organic solvent or mixture, in 1-Propanol), less than 17 mg/mL; in data set [3] (organic solvent or mixture, in 2-Methoxyethanol), not below 333 mg/mL; in data set [3] (organic solvent or mixture, in 2-Methyl-1-propanol), less than 17 mg/mL; in data set [3] (organic solvent or mixture, in 2-Propanol) it was less than 17 mg/mL. Moreover, the solubility in data set [3] (organic solvent or mixture, in Acetone) was less than 17 mg/mL; in data set [3] (organic solvent or mixture, in Acetonitrile) it was less than 17 mg/mL; in data set [3] (organic solvent or mixture, in Chloroform), less than 17 mg/mL; in data set [3] (organic solvent or mixture, in Cyclohexane) it was less than 17 mg/mL; in data set [3] (organic solvent or mixture, in Dichloromethane) it was 17 to 20 mg/mL (≈ 32.2 to 37.8 mM); in data set [3] (organic solvent or mixture, in Dimethyl sulfoxide), not below 333 mg/mL. Further, the solubility was less than 17 mg/mL in data set [3] (organic solvent or mixture, in Ethanol); less than 17 mg/mL in data set [3] (organic solvent or mixture, in Ethyl acetate); less than 17 mg/mL in data set [3] (organic solvent or mixture, in Ethyleneglycol); less than 17 mg/mL in data set [3] (organic solvent or mixture, in IPA/Water (95/5 v/v)); less than 17 mg/mL in data set [3] (organic solvent or mixture, in Isopropyl acetate); less than 17 mg/mL in data set [3] (organic solvent or mixture, in MEK). For the same compound, the solubility in data set [3] (organic solvent or mixture, in MIBK) is less than 17 mg/mL; in data set [3] (organic solvent or mixture, in Methanol), less than 17 mg/mL; in data set [3] (organic solvent or mixture, in N,N-Dimethylformamide), not below 333 mg/mL; in data set [3] (organic solvent or mixture, in Nitromethane), 25 to 33 mg/mL (≈ 47.3 to 62.4 mM); in data set [3] (organic solvent or mixture, in THF/Water (95/5 v/v)), less than 17 mg/mL; in data set [3] (organic solvent or mixture, in Tetrahydrofuran) it was less than 17 mg/mL. Also, the solubility is less than 17 mg/mL in data set [3] (organic solvent or mixture, in Toluene); less than 17 mg/mL in data set [3] (organic solvent or mixture, in n-Heptane); less than 17 mg/mL in data set [3] (organic solvent or mixture, in tert-Butylmethyl ether); less than 17 mg/mL in data set [3] (in Water).

With `C[C@H](NC(=O)c1c(N)nn2cccnc12)c1cc2cccc(C#Cc3cnn(C)c3)c2c(=O)n1-c1ccccc1` [Form 3, (S)-2-amino-N-(1-(8-((1-methyl-1H-pyrazol-4-yl)ethynyl)-1-oxo-2-phenyl-1,2-dihydroisoquinolin-3-yl)ethyl)pyrazolo[1,5-a]pyrimidine-3-carboxamide], the “Static Stability 40° C./75% RH” value in data set [4] is given as “remains Form 3”.

As for `C[C@H](NC(=O)c1c(N)nn2cccnc12)c1cc2cccc(C#Cc3cnn(C)c3)c2c(=O)n1-c1ccccc1` [Form 2, (S)-2-amino-N-(1-(8-((1-methyl-1H-pyrazol-4-yl)ethynyl)-1-oxo-2-phenyl-1,2-dihydroisoquinolin-3-yl)ethyl)pyrazolo[1,5-a]pyrimidine-3-carboxamide], in data set [5], the hygroscopicity entry is recorded as “non-hygroscopic” and the “weight increase (GVS)” value is recorded as “about 1.3%”. Further, the “Static Stability 40° C./75% RH” value in data set [4] is on record as “amorphous after 7”.

`C[C@H](NC(=O)c1c(N)nn2cccnc12)c1cc2cccc(C#Cc3cnn(C)c3)c2c(=O)n1-c1ccccc1` [Form 6, (S)-2-amino-N-(1-(8-((1-methyl-1H-pyrazol-4-yl)ethynyl)-1-oxo-2-phenyl-1,2-dihydroisoquinolin-3-yl)ethyl)pyrazolo[1,5-a]pyrimidine-3-carboxamide]: the “Relative stability of forms in ACN/water slurry” value in data set [6] (5° C., ACN/water, water activity 0.8 (15 vol % water)) is “more stable than Form 1”. In data set [1] (0-90% RH), the “Hygroscopicity by GVS” value is “hygroscopic. Large steps 40-60%” and the “GVS total weight change 0-90% RH” value amounted to 15.0 wt %. Besides, in data set [2] (after 7 days), the “Static stability at 40° C./75% RH, XRPD” value was “subtle changes in XRPD after”. In data set [2] (after 26 days), the “Static stability at 25° C./96% RH, XRPD” value is “no change in XRPD after 26” and the “Static stability at 40° C./75% RH, XRPD” value is recorded as “no further changes after 26”. For the same compound, the “weight increase (GVS)” value in data set [5] is “about 14%”.

For `C[C@H](NC(=O)c1c(N)nn2cccnc12)c1cc2cccc(C#Cc3cnn(C)c3)c2c(=O)n1-c1ccccc1` [Form 7, (S)-2-amino-N-(1-(8-((1-methyl-1H-pyrazol-4-yl)ethynyl)-1-oxo-2-phenyl-1,2-dihydroisoquinolin-3-yl)ethyl)pyrazolo[1,5-a]pyrimidine-3-carboxamide], the “Static Stability 40° C./75% RH” value in data set [4] is given as “remains Form 7”.

For `C[C@H](NC(=O)c1c(N)nn2cccnc12)c1cc2cccc(C#Cc3cnn(C)c3)c2c(=O)n1-c1ccccc1` [Form 4, (S)-2-amino-N-(1-(8-((1-methyl-1H-pyrazol-4-yl)ethynyl)-1-oxo-2-phenyl-1,2-dihydroisoquinolin-3-yl)ethyl)pyrazolo[1,5-a]pyrimidine-3-carboxamide], in data set [4], the “Static Stability 40° C./75% RH” value was “remains Form 4”.

For `C[C@H](NC(=O)c1c(N)nn2cccnc12)c1cc2cccc(C#Cc3cnn(C)c3)c2c(=O)n1-c1ccccc1` [Form 1, (S)-2-amino-N-(1-(8-((1-methyl-1H-pyrazol-4-yl)ethynyl)-1-oxo-2-phenyl-1,2-dihydroisoquinolin-3-yl)ethyl)pyrazolo[1,5-a]pyrimidine-3-carboxamide], in data set [6] (all ACN/water experiments except 50° C. and 5° C. at water activity 0.8), the “Relative stability of forms in ACN/water slurries” value is recorded as “most stable form”. Moreover, the “Relative stability of forms in IPA/water slurries” value in data set [6] (all temperatures (5, 25, 50° C.) and water activities (0.2-0.8), slurried 4 days) is on record as “more stable than Form 6”. In data set [5], the hygroscopicity result is reported as “non-hygroscopic” and the “weight increase (GVS)” value was “about 0.5%”. Moreover, the stability after storage result in data set [4] (25° C./96% RH for more than 9 months) was “stable”. Also, in data set [4] (40° C./75% RH for more than 9 months), the stability after storage entry is recorded as “stable”. In addition, the “Static Stability 40° C./75% RH” value in data set [4] is listed as “no change after 7”.

With `C[C@H](NC(=O)c1c(N)nn2cccnc12)c1cc2cccc(C#Cc3cnn(C)c3)c2c(=O)n1-c1ccccc1` [Form P1C3], the GVS hysteresis result in data set [1] was “No hysteresis”. Besides, in data set [1] (0-90% RH), the “GVS weight gain from 0-90% RH” value amounted to 3.67% and the “Hygroscopicity by GVS” value was “moderately hygroscopic”. Also, in data set [1] (from 0-90% RH, cycle 2), the GVS weight gain amounted to 3.67%. In addition, the kinetic solubility – broadly, solubility judged after dilution from a stock solution rather than from solid – at 30 min in data set [7] (0.1M HCl, pH 1.3, simulated gastric fluid, in 0.1M HCl, pH 1.3) was 20 µg/mL (≈ 0.0378 mM). Moreover, the “Kinetic solubility in 0.1M HCl compared with the free base” value in data set [7] (after 30 min, 0.1M HCl) is “very similar to the free base solubility”. For the same compound, in data set [7] (after 30 min, water), the “Kinetic solubility in water compared with the free base” value was “slightly higher solubility values”. For the same compound, in data set [7] (summary statement), the “Kinetic solubility with respect to the free base” value is recorded as “slight improve in solubility”. Besides, in data set [7] (water, pH 2.9, water, in water, pH 2.9, 3.0), the solubility (kinetic) at 30 min was 40 µg/mL (≈ 0.0757 mM). In data set [2] (setting [9]), the “HPLC purity change after 7 d 40° C. 75% RH 25° C. 97% RH” value is less than 3% for both and the “XRPD after 7 d 40° C. 75% RH 25° C. 97% RH” value is reported as “no change”. In addition, the “XRPD after 7 d at 25° C. 97% RH” value in data set [2] (after 7 d) is “no changes”. The “Static stability at 40° C./75% RH, XRPD” value in data set [2] (after 7 days) is reported as “no changes”. Moreover, in data set [2] (after a week), the “Stability at 25° C./96% RH, purity and XRPD” value is “no significant change”; the “Stability at 40° C./75% RH, purity and XRPD” value is “no significant change”. Besides, the “weight increase (GVS)” value in data set [5] is on record as “about 3.7%”.
